Assay [1] has as its target T1, PN 200-110 binding sites in the rat heart (Rattus norvegicus, UniProt P22002).
T1 construct: from tissue; host or cells: rat heart
Briefly: Binding affinity for PN 200-110 (DHP) binding sites in the rat heart. The source says:
(§1) Binding Assays […] Can. Journ. Physiol. Pharmacol. 65, (1987) 1452. […] This manifests itself, for example, by comparison of the binding affinities for DHP (PN-200 110) binding sites in the rat brain and rat […]., Rutledge, A., Janis, […]., Can. Journ. Physiol. Pharmacol. 65 (1987), 1452].

The subject of assay [2] is PN 200-110 binding sites in the rat brain. Briefly: Binding affinity for PN 200-110 (DHP) binding sites in the rat brain. The settings on record: for Selectivity: Ki (Heart) relative to Ki (Brain), rat; for Ki: rat brain, PN 200-110 binding sites.
Description: as §1

In general, Ki refers to the dissociation constant of the complex between target and ligand, obtained from inhibition or displacement. Read a high Ki as lower affinity.

T1 sequence (P22002 whole entry, other chains not shown): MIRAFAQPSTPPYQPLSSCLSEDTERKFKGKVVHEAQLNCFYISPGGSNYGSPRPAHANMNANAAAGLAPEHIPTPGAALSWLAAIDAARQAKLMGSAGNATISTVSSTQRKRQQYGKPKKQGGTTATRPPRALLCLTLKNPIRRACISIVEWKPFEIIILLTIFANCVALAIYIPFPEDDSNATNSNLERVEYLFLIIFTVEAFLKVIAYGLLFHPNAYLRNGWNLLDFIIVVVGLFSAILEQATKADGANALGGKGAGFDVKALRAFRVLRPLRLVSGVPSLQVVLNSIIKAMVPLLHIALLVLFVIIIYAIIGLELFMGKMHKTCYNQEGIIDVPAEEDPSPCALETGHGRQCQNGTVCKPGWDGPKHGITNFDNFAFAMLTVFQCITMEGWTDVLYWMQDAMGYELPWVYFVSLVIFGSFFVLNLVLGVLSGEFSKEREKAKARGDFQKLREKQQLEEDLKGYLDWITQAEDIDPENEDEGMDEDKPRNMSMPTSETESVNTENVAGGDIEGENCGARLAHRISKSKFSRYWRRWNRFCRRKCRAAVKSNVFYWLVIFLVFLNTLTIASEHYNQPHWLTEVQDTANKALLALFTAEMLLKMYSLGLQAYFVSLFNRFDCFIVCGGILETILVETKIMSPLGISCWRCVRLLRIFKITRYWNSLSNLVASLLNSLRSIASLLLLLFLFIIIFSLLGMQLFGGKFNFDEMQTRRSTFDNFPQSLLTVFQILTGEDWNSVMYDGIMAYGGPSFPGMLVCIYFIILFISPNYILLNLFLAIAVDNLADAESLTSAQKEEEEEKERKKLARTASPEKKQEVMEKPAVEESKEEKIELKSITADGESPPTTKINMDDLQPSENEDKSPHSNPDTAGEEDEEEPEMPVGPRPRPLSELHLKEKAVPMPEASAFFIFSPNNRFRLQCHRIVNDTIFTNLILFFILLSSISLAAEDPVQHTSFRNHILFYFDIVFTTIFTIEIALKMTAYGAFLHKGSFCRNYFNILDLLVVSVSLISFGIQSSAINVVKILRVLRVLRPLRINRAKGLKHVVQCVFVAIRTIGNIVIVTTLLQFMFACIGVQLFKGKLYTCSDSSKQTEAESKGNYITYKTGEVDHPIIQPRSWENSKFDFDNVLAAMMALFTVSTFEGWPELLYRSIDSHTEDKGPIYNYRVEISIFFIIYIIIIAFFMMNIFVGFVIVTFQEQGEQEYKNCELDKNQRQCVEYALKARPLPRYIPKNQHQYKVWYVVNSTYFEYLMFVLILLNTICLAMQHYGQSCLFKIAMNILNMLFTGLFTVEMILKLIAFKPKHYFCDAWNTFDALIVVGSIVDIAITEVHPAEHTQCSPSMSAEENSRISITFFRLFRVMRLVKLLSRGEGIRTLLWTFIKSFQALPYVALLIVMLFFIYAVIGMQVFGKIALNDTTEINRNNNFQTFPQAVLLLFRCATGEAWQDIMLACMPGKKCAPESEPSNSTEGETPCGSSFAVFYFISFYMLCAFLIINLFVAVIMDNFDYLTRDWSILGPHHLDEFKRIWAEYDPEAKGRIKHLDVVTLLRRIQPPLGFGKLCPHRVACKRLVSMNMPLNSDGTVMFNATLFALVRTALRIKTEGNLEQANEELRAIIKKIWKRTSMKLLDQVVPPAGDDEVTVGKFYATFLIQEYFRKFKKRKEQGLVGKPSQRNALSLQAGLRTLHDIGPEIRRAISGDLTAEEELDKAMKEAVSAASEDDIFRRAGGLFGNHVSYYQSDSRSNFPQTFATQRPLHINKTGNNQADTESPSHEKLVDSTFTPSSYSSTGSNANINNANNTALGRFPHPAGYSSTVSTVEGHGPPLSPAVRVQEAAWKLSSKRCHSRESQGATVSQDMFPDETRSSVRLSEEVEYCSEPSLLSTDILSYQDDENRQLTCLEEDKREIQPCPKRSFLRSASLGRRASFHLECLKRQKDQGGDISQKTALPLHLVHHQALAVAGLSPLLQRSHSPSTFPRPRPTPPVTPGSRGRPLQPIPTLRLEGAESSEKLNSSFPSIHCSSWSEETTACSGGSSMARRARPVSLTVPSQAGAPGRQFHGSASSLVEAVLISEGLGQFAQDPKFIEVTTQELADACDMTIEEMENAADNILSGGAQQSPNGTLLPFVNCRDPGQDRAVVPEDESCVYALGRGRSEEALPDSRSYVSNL
T1 sequence (P54290 25-944 partner limits assumed, other chains not shown): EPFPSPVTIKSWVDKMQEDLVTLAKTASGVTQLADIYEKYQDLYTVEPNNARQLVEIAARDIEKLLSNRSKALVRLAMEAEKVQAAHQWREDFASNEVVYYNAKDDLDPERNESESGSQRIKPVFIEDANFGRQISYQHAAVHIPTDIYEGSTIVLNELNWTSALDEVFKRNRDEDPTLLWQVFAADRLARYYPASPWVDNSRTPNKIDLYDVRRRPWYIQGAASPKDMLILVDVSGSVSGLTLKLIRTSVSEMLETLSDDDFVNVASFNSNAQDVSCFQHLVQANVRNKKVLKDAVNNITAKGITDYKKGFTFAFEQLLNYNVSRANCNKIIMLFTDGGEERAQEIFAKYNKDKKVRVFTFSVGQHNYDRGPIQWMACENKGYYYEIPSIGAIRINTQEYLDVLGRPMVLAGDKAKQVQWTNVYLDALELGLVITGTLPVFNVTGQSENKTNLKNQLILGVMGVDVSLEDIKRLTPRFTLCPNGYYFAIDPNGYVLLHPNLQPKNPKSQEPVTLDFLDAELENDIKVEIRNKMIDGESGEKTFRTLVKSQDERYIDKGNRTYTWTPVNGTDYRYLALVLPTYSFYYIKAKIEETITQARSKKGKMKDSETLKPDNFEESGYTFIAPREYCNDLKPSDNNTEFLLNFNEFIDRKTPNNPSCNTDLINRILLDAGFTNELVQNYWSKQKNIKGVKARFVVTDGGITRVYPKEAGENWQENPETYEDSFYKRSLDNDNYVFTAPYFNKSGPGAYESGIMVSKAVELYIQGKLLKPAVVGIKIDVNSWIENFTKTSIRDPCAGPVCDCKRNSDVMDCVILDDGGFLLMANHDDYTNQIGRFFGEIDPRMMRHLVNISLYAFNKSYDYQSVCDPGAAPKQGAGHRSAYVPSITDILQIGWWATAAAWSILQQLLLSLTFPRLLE
T1 sequence (P54290 945-1091 partner limits assumed, other chains not shown): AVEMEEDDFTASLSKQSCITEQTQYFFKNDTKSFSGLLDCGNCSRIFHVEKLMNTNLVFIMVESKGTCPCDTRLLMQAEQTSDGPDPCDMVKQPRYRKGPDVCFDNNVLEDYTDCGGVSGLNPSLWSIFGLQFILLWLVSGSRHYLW

In turn, `CO[C@H](COC(=O)C1=C(C)NC(C)=C(C(=O)OC(C)C)C1c1cccc(F)c1F)c1ccccc1` (stereo partly drawn) [Example 21, isopropyl (S)-methoxy-2-phenylethyl 4-(2,3-difluorophenyl)-1,4-dihydro-2,6-dimethylpyridine-3,5-dicarboxylate] had a Ki in assay [1] of 78 nM. In assay [2], the Selectivity came to 6.0 and the Ki came out at 13 nM.
Consider `COC(=O)C1=C(C)NC(C)=C(C(=O)OCCN(C)Cc2ccccc2)C1c1cccc([N+](=O)[O-])c1` (stereo not shown) [Nicardipine, nicardipine], for which, in assay [2], the Selectivity is 0.44 and the Ki is 32 nM.
In assay [2], `COCCOC(=O)C1=C(C)NC(C)=C(C(=O)OC(C)C)C1c1cccc([N+](=O)[O-])c1` (stereo not shown) [Nimodipine, nimodipine] had a Selectivity of 1.9 and a Ki of 2.4 nM.

Source of the values: patent publication US6066655A, “4-phenyl-3-substituted 1,4-dihydropyridine esters” (Bayer Aktiengesellschaft, priority 1993, dated 2000).
